Source: PubChem BioAssay AID2060619 (Molecular Pharmacology Branch, DTP, NCI, 2025)
One block for each compound: values may come before it.

Tested on: 323965-272-R-J2-PDC complex spheroid viability
Experiment: Anticancer human tumor 323965-272-R-J2-PDC patient-derived pancreatic carcinoma cell line growth inhibition [CLK]
Settings: for IC50: curve of first compound; for viability, T/C: stronger effect = lower value
How it was run: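 Multi-cell-type spheroids combined patient-derived tumor cells with HUVEC endothelial cells and human mesenchymal stem cells. Paired agents were dosed in half-log steps down from about clinical Cmax, or from 10 microM where Cmax was unknown.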

[1] = second compound 0.0316 µM, first compound 0.0316 µM
[2] = second compound 0.0316 µM, first compound 0.1 µM
[3] = second compound 0.0316 µM, first compound 0.316 µM
[4] = second compound 0.0316 µM, first compound 1 µM
[5] = second compound 0.0316 µM, first compound 3.16 µM
[6] = second compound 0.0316 µM, first compound 10 µM
[7] = second compound 0.1 µM, first compound 0.0316 µM
[8] = second compound 0.1 µM, first compound 0.1 µM
[9] = second compound 0.1 µM, first compound 0.316 µM
[10] = second compound 0.1 µM, first compound 1 µM
[11] = second compound 0.1 µM, first compound 3.16 µM
[12] = second compound 0.1 µM, first compound 10 µM
[13] = second compound 0.316 µM, first compound 0.0316 µM
[14] = second compound 0.316 µM, first compound 0.1 µM
[15] = second compound 0.316 µM, first compound 0.316 µM
[16] = second compound 0.316 µM, first compound 1 µM
[17] = second compound 0.316 µM, first compound 3.16 µM
[18] = second compound 0.316 µM, first compound 10 µM
[19] = second compound 1 µM, first compound 0.0316 µM
[20] = second compound 1 µM, first compound 0.1 µM
[21] = second compound 1 µM, first compound 0.316 µM
[22] = second compound 1 µM, first compound 1 µM
[23] = second compound 1 µM, first compound 3.16 µM
[24] = second compound 1 µM, first compound 10 µM
[25] = second compound 3.16 µM, first compound 0.0316 µM
[26] = second compound 3.16 µM, first compound 0.1 µM
[27] = second compound 3.16 µM, first compound 0.316 µM
[28] = second compound 3.16 µM, first compound 1 µM
[29] = second compound 3.16 µM, first compound 3.16 µM
[30] = second compound 3.16 µM, first compound 10 µM
[31] = second compound 10 µM, first compound 0.0316 µM
[32] = second compound 10 µM, first compound 0.1 µM
[33] = second compound 10 µM, first compound 0.316 µM
[34] = second compound 10 µM, first compound 1 µM
[35] = second compound 10 µM, first compound 3.16 µM
[36] = second compound 10 µM, first compound 10 µM
[37] = second compound 0.0316 µM, first compound 0.00316 µM
[38] = second compound 0.0316 µM, first compound 0.01 µM
[39] = second compound 0.1 µM, first compound 0.00316 µM
[40] = second compound 0.1 µM, first compound 0.01 µM
[41] = second compound 0.316 µM, first compound 0.00316 µM
[42] = second compound 0.316 µM, first compound 0.01 µM
[43] = second compound 1 µM, first compound 0.00316 µM
[44] = second compound 1 µM, first compound 0.01 µM
[45] = second compound 3.16 µM, first compound 0.00316 µM
[46] = second compound 3.16 µM, first compound 0.01 µM
[47] = second compound 10 µM, first compound 0.00316 µM
[48] = second compound 10 µM, first compound 0.01 µM
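Further: spheroids exposed to agents for seven days before readout.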
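Wherever viability, T/C is given: percent of DMSO vehicle control wells so 100% = untreated growth.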

IC50 (second compound 0.0316 µM): > 10000 nM | IC50 (second compound 0.1 µM): > 10000 nM | IC50 (second compound 0.316 µM): > 10000 nM | IC50 (second compound 1 µM): < 31.6 nM | IC50 (second compound 3.16 µM): < 31.6 nM | IC50 (second compound 10 µM): < 31.6 nM
Compound: CC(CO)NC(=O)c1cc(-c2ccc(Cl)cc2)nn(-c2cnn(C)c2)c1=O (stereo not drawn) + CNC(=O)c1ccc(Nc2nc(OC3CCCC3)c3c(-c4ccc5nc(C)oc5c4)c[nH]c3n2)c(OC)c1
viability, T/C [1]: 122% | viability, T/C [2]: 85.6% | viability, T/C [3]: 100% | viability, T/C [4]: 101% | viability, T/C [5]: 102% | viability, T/C [6]: 103% | viability, T/C [7]: 81.2% | viability, T/C [8]: 80.5% | viability, T/C [9]: 76.5% | viability, T/C [10]: 73.7% | viability, T/C [11]: 76.9% | viability, T/C [12]: 72.1% | viability, T/C [13]: 60% | viability, T/C [14]: 67.4% | viability, T/C [15]: 67.1% | viability, T/C [16]: 57.8% | viability, T/C [17]: 61% | viability, T/C [18]: 53.4% | viability, T/C [19]: 50.8% | viability, T/C [20]: 41.2% | viability, T/C [21]: 42.2% | viability, T/C [22]: 51.1% | viability, T/C [23]: 51.6% | viability, T/C [24]: 48.7% | viability, T/C [25]: 41.8% | viability, T/C [26]: 42.5% | viability, T/C [27]: 40.1% | viability, T/C [28]: 35.5% | viability, T/C [29]: 44.4% | viability, T/C [30]: 47.1% | viability, T/C [31]: 43.2% | viability, T/C [32]: 40.4% | viability, T/C [33]: 36.8% | viability, T/C [34]: 43.1% | viability, T/C [35]: 41.5% | viability, T/C [36]: 41.4%

IC50 (second compound 0.0316 µM): > 10000 nM | IC50 (second compound 0.1 µM): > 10000 nM | IC50 (second compound 0.316 µM): 290 nM | IC50 (second compound 1 µM): < 31.6 nM | IC50 (second compound 3.16 µM): < 31.6 nM | IC50 (second compound 10 µM): < 31.6 nM
Compound: CC(Nc1ccc2c(c1)OCCn1cc(N3C(=O)OCC3C(F)F)nc1-2)C(N)=O (stereo not drawn) + CNC(=O)c1ccc(Nc2nc(OC3CCCC3)c3c(-c4ccc5nc(C)oc5c4)c[nH]c3n2)c(OC)c1
viability, T/C [1]: 110% | viability, T/C [2]: 97.7% | viability, T/C [3]: 80.4% | viability, T/C [4]: 68.9% | viability, T/C [5]: 64% | viability, T/C [6]: 52% | viability, T/C [7]: 89.7% | viability, T/C [8]: 74.6% | viability, T/C [9]: 73.9% | viability, T/C [10]: 71.6% | viability, T/C [11]: 58.4% | viability, T/C [12]: 50.5% | viability, T/C [13]: 63.6% | viability, T/C [14]: 59.5% | viability, T/C [15]: 48.5% | viability, T/C [16]: 43.1% | viability, T/C [17]: 39.9% | viability, T/C [18]: 39.2% | viability, T/C [19]: 43.4% | viability, T/C [20]: 36.5% | viability, T/C [21]: 33% | viability, T/C [22]: 29.6% | viability, T/C [23]: 30.1% | viability, T/C [24]: 27.7% | viability, T/C [25]: 34.8% | viability, T/C [26]: 35.6% | viability, T/C [27]: 30.7% | viability, T/C [28]: 27.8% | viability, T/C [29]: 30.7% | viability, T/C [30]: 21.7% | viability, T/C [31]: 42% | viability, T/C [32]: 33.8% | viability, T/C [33]: 28% | viability, T/C [34]: 28.8% | viability, T/C [35]: 28% | viability, T/C [36]: 20.9%

IC50 (second compound 0.0316 µM): > 1000 nM | IC50 (second compound 0.1 µM): > 1000 nM | IC50 (second compound 0.316 µM): > 1000 nM | IC50 (second compound 1 µM): < 3.16 nM | IC50 (second compound 3.16 µM): < 3.16 nM | IC50 (second compound 10 µM): < 3.16 nM
Compound: CCN1CCN(Cc2ccc(Nc3ncc(F)c(-c4cc(F)c5nc(C)n(C(C)C)c5c4)n3)nc2)CC1 + CNC(=O)c1ccc(Nc2nc(OC3CCCC3)c3c(-c4ccc5nc(C)oc5c4)c[nH]c3n2)c(OC)c1
viability, T/C [37]: 90.3% | viability, T/C [38]: 103% | viability, T/C [1]: 86.9% | viability, T/C [2]: 68.4% | viability, T/C [3]: 66.2% | viability, T/C [4]: 74.3% | viability, T/C [39]: 84.9% | viability, T/C [40]: 73.4% | viability, T/C [7]: 60.6% | viability, T/C [8]: 63.1% | viability, T/C [9]: 55.7% | viability, T/C [10]: 67.6% | viability, T/C [41]: 64.1% | viability, T/C [42]: 53.4% | viability, T/C [13]: 54.2% | viability, T/C [14]: 44.2% | viability, T/C [15]: 50.6% | viability, T/C [16]: 57.6% | viability, T/C [43]: 48.5% | viability, T/C [44]: 40.5% | viability, T/C [19]: 45.9% | viability, T/C [20]: 49.4% | viability, T/C [21]: 40.4% | viability, T/C [22]: 61.7% | viability, T/C [45]: 42.8% | viability, T/C [46]: 39.2% | viability, T/C [25]: 37.6% | viability, T/C [26]: 39.8% | viability, T/C [27]: 43.1% | viability, T/C [28]: 46.8% | viability, T/C [47]: 42.7% | viability, T/C [48]: 46.4% | viability, T/C [31]: 41.5% | viability, T/C [32]: 38.5% | viability, T/C [33]: 46% | viability, T/C [34]: 48.5%

IC50 (second compound 0.0316 µM): 90.7 nM | IC50 (second compound 0.1 µM): 62.2 nM | IC50 (second compound 0.316 µM): 16.3 nM | IC50 (second compound 1 µM): < 3.16 nM | IC50 (second compound 3.16 µM): < 3.16 nM | IC50 (second compound 10 µM): < 3.16 nM
Compound: COc1c(OCCCN2CCOCC2)ccc2c3n(c(=NC(=O)c4cnc(N)nc4)nc12)CCN3 + CNC(=O)c1ccc(Nc2nc(OC3CCCC3)c3c(-c4ccc5nc(C)oc5c4)c[nH]c3n2)c(OC)c1
viability, T/C [37]: 107% | viability, T/C [38]: 82% | viability, T/C [1]: 66.8% | viability, T/C [2]: 48.4% | viability, T/C [3]: 34.1% | viability, T/C [4]: 22.2% | viability, T/C [39]: 89.8% | viability, T/C [40]: 84.6% | viability, T/C [7]: 58.8% | viability, T/C [8]: 42% | viability, T/C [9]: 31.2% | viability, T/C [10]: 21.1% | viability, T/C [41]: 64.5% | viability, T/C [42]: 56.7% | viability, T/C [13]: 42.4% | viability, T/C [14]: 31.7% | viability, T/C [15]: 27.7% | viability, T/C [16]: 16.4% | viability, T/C [43]: 45.5% | viability, T/C [44]: 38.8% | viability, T/C [19]: 31.8% | viability, T/C [20]: 24.5% | viability, T/C [21]: 21.4% | viability, T/C [22]: 15.2% | viability, T/C [45]: 37.5% | viability, T/C [46]: 28.3% | viability, T/C [25]: 23.3% | viability, T/C [26]: 19.4% | viability, T/C [27]: 15.8% | viability, T/C [28]: 13.7% | viability, T/C [47]: 44.8% | viability, T/C [48]: 32.7% | viability, T/C [31]: 26.4% | viability, T/C [32]: 19.8% | viability, T/C [33]: 17.1% | viability, T/C [34]: 13.5%
